Blank lines part the entries; values can stand above or below the substance they belong to. Bridge positions count the residues as written; N and C are the ends. Ends that are not written are not given here. * marks the point of attachment. CH2F = FC*
Assays:
plasma Kallikrein [1] = target: T1, plasma Kallikrein (Homo sapiens, UniProt P03952); settings: ANGL87; cited from earlier work
Target sequence in this assay (P03952 20-390): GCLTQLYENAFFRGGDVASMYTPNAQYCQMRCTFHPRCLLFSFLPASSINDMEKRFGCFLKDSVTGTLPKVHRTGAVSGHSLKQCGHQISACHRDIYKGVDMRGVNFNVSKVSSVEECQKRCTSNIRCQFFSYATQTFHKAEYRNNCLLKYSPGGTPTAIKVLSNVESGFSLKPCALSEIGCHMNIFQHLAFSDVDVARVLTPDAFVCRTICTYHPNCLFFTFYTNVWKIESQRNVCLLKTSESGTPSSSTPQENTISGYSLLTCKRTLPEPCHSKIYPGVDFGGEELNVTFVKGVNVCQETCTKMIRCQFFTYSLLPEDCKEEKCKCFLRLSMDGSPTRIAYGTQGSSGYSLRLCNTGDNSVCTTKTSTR
Target sequence in this assay (P03952 391-638): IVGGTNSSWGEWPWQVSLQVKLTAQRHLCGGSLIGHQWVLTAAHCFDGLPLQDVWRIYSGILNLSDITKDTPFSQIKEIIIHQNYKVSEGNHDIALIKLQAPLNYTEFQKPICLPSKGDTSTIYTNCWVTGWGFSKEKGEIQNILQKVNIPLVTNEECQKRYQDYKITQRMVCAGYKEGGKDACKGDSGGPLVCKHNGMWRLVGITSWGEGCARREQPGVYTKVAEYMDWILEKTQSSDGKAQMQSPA

Trypsin [2] = settings: ANGL87; cited from earlier work
Plasmin [3] = target: T2, Plasmin (Homo sapiens, UniProt P00747); test: biochemical
Text: (§1) A second method appropriate for measuring the affinity of inhibitors for enzymes is to measure the ability of the inhibitor to slow the action of the enzyme. This method requires, depending on the speed at which the enzyme cleaves substrate and the availability of chromogenic or fluorogenic substrates, tens of micrograms to milligrams of relatively pure inhibitor.

pKA (plasma kallikrein) = pKA (plasma kallikrein) (Homo sapiens, UniProt P03952); test: biochemical
Text: as §1

Plasmin [4] = target: T2, Plasmin; test: Display-phage binding to plasmin target (specificity); settings: compared to the parental phage display LACI-K1
Thrombin = Thrombin (Homo sapiens, UniProt P00734); test: Display-phage binding to thrombin target (specificity); settings: compared to the parental phage display LACI-K1
Trypsin [5] = test: Display-phage binding to trypsin target (specificity); settings: compared to the parental phage display LACI-K1
plasma Kallikrein [6] = target: T1, plasma Kallikrein; test: Display-phage binding to human plasma kallikrein-agarose beads; design: The light chain (248 residues) carries the catalytic site; purchased Calbiochem #420302
Method: This method is highly sensitive because the genetic packages can be amplified. We obtain at least semiquantitative values for the binding constants by use of a pH step gradient.
The overall scheme for selecting a LACI(K1) variant to bind to a given protease involves incubation of the phage-display library with the kallikrein-beads of interest in a buffered solution (PBS containing 1 mg/ml BSA) followed by washing away the unbound and poorly retained display-phage variant with PBS containing 0.1% Tween 20. Kallikrein beads were made by coupling human plasma Kallikrein (Calbiochem, San Diego, Calif., #420302) to agarose beads using Reactigel (6×) (Pierce, Rockford, Ill., #202606). […]
The neutralized eluted display-phage can be either used: • i) to inoculate an F^+ strain of E. coli to generate a new display-phage stock, to be used for subsequent rounds of selection (so-called conventional screening), or • ii) be used directly for another immediate round of selection with the protease beads (so-called quick screening). Typically, three rounds of either method, or a combination of the two, are performed to give rise to the final selected display-phage from which a representative number are sequenced and analyzed for binding properties either as pools of display-phage or as individual clones.
Target sequence in this assay (P03952 391-638 limits assumed): as the sequence (P03952 391-638) above
Target sequence in this assay (P03952 20-390 limits assumed): as the sequence (P03952 20-390) above

Chain of pKA (plasma kallikrein) (P03952 391-638 limits assumed): as the sequence (P03952 391-638) above
Chain of pKA (plasma kallikrein) (P03952 20-390 limits assumed): as the sequence (P03952 20-390) above
T2 sequence (P00747 581-810 limits assumed, species assumed): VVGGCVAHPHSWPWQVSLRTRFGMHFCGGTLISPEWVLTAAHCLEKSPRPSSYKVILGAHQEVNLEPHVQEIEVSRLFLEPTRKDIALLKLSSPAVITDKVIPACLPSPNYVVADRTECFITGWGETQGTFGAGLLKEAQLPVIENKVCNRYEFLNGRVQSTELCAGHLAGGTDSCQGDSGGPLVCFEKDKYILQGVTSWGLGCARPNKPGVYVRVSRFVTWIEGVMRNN
T2 sequence (P00747 97-580 partner limits assumed, species assumed): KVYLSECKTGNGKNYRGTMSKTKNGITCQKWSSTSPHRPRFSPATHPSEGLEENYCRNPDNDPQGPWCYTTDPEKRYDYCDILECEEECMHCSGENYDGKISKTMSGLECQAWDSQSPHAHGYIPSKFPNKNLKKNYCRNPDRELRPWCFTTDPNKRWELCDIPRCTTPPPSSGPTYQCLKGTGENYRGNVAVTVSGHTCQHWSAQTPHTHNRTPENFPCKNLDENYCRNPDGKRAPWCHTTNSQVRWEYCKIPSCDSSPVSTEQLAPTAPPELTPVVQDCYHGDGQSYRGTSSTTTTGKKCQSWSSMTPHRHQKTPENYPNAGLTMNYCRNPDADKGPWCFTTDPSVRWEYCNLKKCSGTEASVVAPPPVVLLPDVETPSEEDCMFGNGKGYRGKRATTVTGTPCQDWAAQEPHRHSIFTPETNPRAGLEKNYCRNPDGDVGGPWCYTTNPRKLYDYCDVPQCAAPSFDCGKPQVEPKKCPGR

Substance: Ala-Phe-Lys-CH2F
- inhibition of plasma kallikrein (plasma Kallikrein [1]): active-centre-directed inhibitor
- inhibition of trypsin (Trypsin [2]): active-centre-directed inhibitor

Substance: MHSFCAFKADDGHCKANHQRFFFNIFTRQCEEFSYGGCGGNQNRFESLEECKKMCTRD (disulfide 5-55, 14-38, 30-51) [KKII/3#6]
- Ki (Plasmin [3]): 10 µM
- Ki (pKA (plasma kallikrein)): < 0.0005 µM
- Ki for kallikrein (pKA (plasma kallikrein); stated in words): nanomolar range
- Ki for kallikrein relative to wild-type LACI and BPTI (pKA (plasma kallikrein); versus both wild-type LACI and BPTI): over 100 times

- relative binding of phage display clones, target Plasmin (Plasmin [4]): (88)^4
- relative binding of phage display clones, target Thrombin (Thrombin): (1.1)
- relative binding of phage display clones, target Trypsin (Trypsin [5]): (0.3)
- relative binding of phage display clones, target Trypsin, two washes (Trypsin [5]; two washes): (0.8)
- relative binding of phage display clones, target Kallikrein (plasma Kallikrein [6]; compared to the parental phage display LACI-K1): (1.7)
- Relative Binding (plasma Kallikrein [6]; fraction bound relative to the parental display-phage LACI(K1)): 6.0
Substance: bovine pancreatic trypsin inhibitor [BPTI]
